US6436945B2, “Substituted O6-benzyl-8-aza-guanines” (The United States of America as represented by the of …, priority 1994, dated 2002)
Positions count from the first letter of the chain named.

Legend:
[1] = system: HT-29 colon cancer cells; experiment: Killing of HT-29 colon cancer cells by BCNU combined with AGT inactivators (colony formation); settings: for Colony Formation per 1000 cells: HT-29
Procedure: (§1) Cells were treated for 2 h with AGT inactivator prior to exposure to BCNU.

[2] = target: T1, alkyltransferase P140A (Homo sapiens, UniProt P16455, P140A); experiment: Inhibition of mutant alkyltransferase proteins, P140A; format: biochemical
T1 construct: made in house
T1 sequence (P16455 1-207 P140A): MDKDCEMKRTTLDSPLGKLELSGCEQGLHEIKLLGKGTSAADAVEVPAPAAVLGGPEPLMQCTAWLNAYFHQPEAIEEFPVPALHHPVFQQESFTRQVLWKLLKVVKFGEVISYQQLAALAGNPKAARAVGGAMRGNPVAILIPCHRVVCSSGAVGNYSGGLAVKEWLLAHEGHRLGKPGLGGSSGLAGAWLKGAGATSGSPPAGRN

[3] = system: MCF-71 breast cancer cells; experiment: Killing of MCF-71 breast cancer cells by BCNU combined with AGT inactivators (colony formation)
Procedure: as §1

[4] = target: T2, alkyltransferase P138A/P140A (Homo sapiens, UniProt P16455, P138A/P140A); experiment: Inhibition of mutant alkyltransferase proteins, P138A/P140A; format: biochemical
T2 construct: made in house
T2 sequence (P16455 1-207 P138A/P140A): T1 sequence (P16455 1-207 P140A) with P138A

[5] = system: mutant alkyltransferase; experiment: Inactivation of mutant (resistant) alkyltransferase, overall statements; format: biochemical, human; settings: intracellular concentration, extrapolated from Table 6
[6] = target: T3, alkyltransferase G156A (Homo sapiens, UniProt P16455, G156A); experiment: Inhibition of mutant alkyltransferase proteins, G156A; format: biochemical
T3 construct: made in house
T3 sequence (P16455 1-207 G156A): T1 sequence (P16455 1-207 P140A) with A140P, G156A

[7] = system: DU-145 prostate cancer cells; experiment: Killing of DU-145 prostate cancer cells by BCNU combined with AGT inactivators (colony formation)
Procedure: as §1

[8] = target: T4, O^6-alkylguanine-DNA alkyltransferase (AGT) (Homo sapiens, UniProt P16455); design: endogenous in cells; host or cells: HT29 human colon tumor cells; settings: text b35, comparison value of Table 1; cited from earlier work
T4 sequence (P16455 1-207): T1 sequence (P16455 1-207 P140A) with A140P

[9] = target: T5, Control alkyltransferase (Homo sapiens, UniProt P16455); experiment: Inhibition of alkyltransferase proteins, control protein; format: biochemical; settings: concentration to inactivate 50% of the activity in 30 minutes, read-out: ED50 value
T5 sequence (P16455 1-207): T1 sequence (P16455 1-207 P140A) with A140P

[10] = target: T4, O^6-alkylguanine-DNA alkyltransferase (AGT); experiment: AGT inactivation in intact HT29 cells
Procedure: (§2) The data represent the dose of compound required to produce 50% inactivation in cell-free extracts upon incubation for 30 min or in cells upon incubation for 4 hr.

[11] = target: T4, O^6-alkylguanine-DNA alkyltransferase (AGT); experiment: AGT inactivation in HT29 cell-free extract
Procedure: as §2

## Nc1nc(OCc2ccccc2)c2nc[nH]c2n1 [O^6-benzylguanine, reference compound]
[1]; inactivator 1 μM, BCNU 40 μM
  Colony Formation per 1000 cells: 277 ± 25 per 1000 cells
[1]; inactivator 10 μM, BCNU 40 μM
  Colony Formation per 1000 cells: 13 ± 6 per 1000 cells
[1]; inactivator 10 μM, BCNU none
  Colony Formation per 1000 cells: 431 ± 33 per 1000 cells
[1]; inactivator […], BCNU 40 μM
  Colony Formation per 1000 cells: 38 ± 15 per 1000 cells
[2]; P140A versus control protein
  increase in resistance to inactivation: 20 fold
[3]; inactivator 10 μM, BCNU 40 μM
  Colony Formation per 1000 cells: 4 ± 2 per 1000 cells
[3]; inactivator 10 μM, BCNU none
  Colony Formation per 1000 cells: 455 ± 63 per 1000 cells
[3]; inactivator […], BCNU 40 μM
  Colony Formation per 1000 cells: 12 ± 6 per 1000 cells
[4]; P138A/P140A versus control protein
  increase in resistance to inactivation: 88 fold
[5]
  concentration needed to be effective at inactivating resistant alkyltransferase: greater than 200 μM
[6]; G156A versus control protein
  increase in resistance to inactivation: 240 fold
[7]; inactivator 1 μM, BCNU 40 μM
  Colony Formation per 1000 cells: 299 ± 18 per 1000 cells
[7]; inactivator 10 μM, BCNU 40 μM
  Colony Formation per 1000 cells: 28 ± 5 per 1000 cells
[7]; inactivator 10 μM, BCNU none
  Colony Formation per 1000 cells: 462 ± 68 per 1000 cells
[8]
  ED50 value for inactivation of AGT in HT29 cell extracts: 200000 nM

## Nc1nc(N)c(N=O)c(OCc2ccccc2)n1 [Compound 3d, 2,4-diamino-6-benzyloxy-5-nitrosopyrimidine]
[1]; BCNU 40 μM, statement covers HT29, DU-145 and MCF-71 cells (Tables 3-5)
  enhancement of BCNU cytotoxicity, in words: similarly effective at a 4-fold lower dose
[1]; inactivator 1 μM, BCNU 40 μM
  Colony Formation per 1000 cells: 19 ± 4 per 1000 cells
[1]; inactivator […], BCNU 40 μM
  Colony Formation per 1000 cells: <1 per 1000 cells
[9]
  EC50: 50 nM
[2]; P140A, concentration to inactivate 50% of the activity in 30 minutes, read-out: ED50 value
  EC50: 100 nM
[3]; inactivator […], BCNU 40 μM
  Colony Formation per 1000 cells: 2 ± 1 per 1000 cells
[10]
  EC50: 20 nM
[4]; P138A/P140A, concentration to inactivate 50% of the activity in 30 minutes, read-out: ED50 value
  EC50: 300 nM
[5]
  concentration needed to be effective at inactivating resistant alkyltransferase: greater than 5 μM
[6]; G156A, concentration to inactivate 50% of the activity in 30 minutes, read-out: ED50 value
  EC50: 1000 nM
[7]; inactivator 1 μM, BCNU 40 μM
  Colony Formation per 1000 cells: 25 ± 4 per 1000 cells
[11]
  EC50: 60 nM
[11]; comparison
  AGT inactivating activity in HT29 cell-free extracts, in words: the most active AGT inactivators tested to date
